Literature values, collected in patent publication US10391330B2, “Non-invasive systems and methods for in-situ photobiomodulation” (priority 2008, dated 2019).

Columns and labels:
[1] = clinical use
T cells = details: combination with UVA radiation

SMILES	duration of skin photosensitivity [1]	apoptosis of the treated T cells (T cells)
Oc1cccc(-c2c3nc(c(-c4cccc(O)c4)c4ccc([nH]4)c(-c4cccc(O)c4)c4nc(c(-c5cccc(O)c5)c5ccc2[nH]5)CC4)C=C3)c1 [Foscan, Tetra (m-hydroxyphenyl) chlorin]	approximately 2 weeks	–
COc1c2occc2cc2ccc(=O)oc12 [Compound 8-MOP, 8-methoxypsoralen]	–	causes apoptosis
